Data on one compound can be found in paper PMC4979471 (Cell Death Discovery, 2015).

Assay in all cases: Kinase selectivity, P33-radiolabeled assay
Assay type in all cases: biochemical
Settings in all cases: 10 μM ATP

One experiment has as its target T1, TAOK2/TAO1 (Homo sapiens, UniProt Q9UL54).
T1 construct: purchased Reaction Biology Corp
T1 sequence (Q9UL54 1-1235): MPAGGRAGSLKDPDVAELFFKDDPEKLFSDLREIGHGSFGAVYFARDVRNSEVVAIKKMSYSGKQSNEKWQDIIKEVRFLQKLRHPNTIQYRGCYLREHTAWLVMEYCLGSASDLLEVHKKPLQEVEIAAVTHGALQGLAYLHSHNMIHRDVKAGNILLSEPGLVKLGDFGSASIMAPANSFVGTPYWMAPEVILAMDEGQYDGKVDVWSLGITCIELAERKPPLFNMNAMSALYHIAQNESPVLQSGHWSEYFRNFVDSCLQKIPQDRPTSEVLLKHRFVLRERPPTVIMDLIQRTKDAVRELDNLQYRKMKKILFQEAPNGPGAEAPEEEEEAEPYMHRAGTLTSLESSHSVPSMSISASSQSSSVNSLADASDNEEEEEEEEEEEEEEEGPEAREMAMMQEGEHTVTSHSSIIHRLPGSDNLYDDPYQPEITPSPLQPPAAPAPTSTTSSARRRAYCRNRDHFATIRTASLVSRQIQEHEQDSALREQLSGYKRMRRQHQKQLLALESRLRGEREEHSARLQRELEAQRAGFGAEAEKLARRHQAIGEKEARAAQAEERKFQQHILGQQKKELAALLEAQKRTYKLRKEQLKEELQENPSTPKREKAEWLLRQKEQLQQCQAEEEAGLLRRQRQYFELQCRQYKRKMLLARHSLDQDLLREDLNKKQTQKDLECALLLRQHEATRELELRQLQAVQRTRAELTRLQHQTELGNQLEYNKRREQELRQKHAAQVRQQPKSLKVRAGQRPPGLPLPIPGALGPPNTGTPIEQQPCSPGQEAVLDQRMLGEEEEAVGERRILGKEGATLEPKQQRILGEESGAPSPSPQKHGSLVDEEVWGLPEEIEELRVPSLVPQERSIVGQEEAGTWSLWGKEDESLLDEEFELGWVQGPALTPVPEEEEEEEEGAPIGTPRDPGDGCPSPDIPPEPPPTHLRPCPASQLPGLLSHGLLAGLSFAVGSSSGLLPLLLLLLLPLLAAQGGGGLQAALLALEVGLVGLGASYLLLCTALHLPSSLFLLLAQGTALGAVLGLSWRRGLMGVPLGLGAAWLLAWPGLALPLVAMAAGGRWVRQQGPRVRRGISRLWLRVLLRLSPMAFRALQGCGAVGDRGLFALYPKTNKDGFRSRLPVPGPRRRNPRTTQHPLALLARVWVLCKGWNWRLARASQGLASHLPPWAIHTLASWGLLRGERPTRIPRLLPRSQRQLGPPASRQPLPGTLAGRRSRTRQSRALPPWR
The method, boiled down:
(§1)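 Each enzyme was exposed to 10 μM compound, with duplicate measurements, in reactions containing 10 μM ATP. Numbers are remaining activity as a percent of the vehicle (DMSO) signal.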

Another experiment addresses T2, PDGFRa (Homo sapiens, UniProt P16234).
T2 construct: purchased Reaction Biology Corp
The method, boiled down: as §1

In the next experiment the target is T3, MYLK3 (Homo sapiens, UniProt Q32MK0).
T3 construct: purchased Reaction Biology Corp
T3 sequence (Q32MK0 1-819): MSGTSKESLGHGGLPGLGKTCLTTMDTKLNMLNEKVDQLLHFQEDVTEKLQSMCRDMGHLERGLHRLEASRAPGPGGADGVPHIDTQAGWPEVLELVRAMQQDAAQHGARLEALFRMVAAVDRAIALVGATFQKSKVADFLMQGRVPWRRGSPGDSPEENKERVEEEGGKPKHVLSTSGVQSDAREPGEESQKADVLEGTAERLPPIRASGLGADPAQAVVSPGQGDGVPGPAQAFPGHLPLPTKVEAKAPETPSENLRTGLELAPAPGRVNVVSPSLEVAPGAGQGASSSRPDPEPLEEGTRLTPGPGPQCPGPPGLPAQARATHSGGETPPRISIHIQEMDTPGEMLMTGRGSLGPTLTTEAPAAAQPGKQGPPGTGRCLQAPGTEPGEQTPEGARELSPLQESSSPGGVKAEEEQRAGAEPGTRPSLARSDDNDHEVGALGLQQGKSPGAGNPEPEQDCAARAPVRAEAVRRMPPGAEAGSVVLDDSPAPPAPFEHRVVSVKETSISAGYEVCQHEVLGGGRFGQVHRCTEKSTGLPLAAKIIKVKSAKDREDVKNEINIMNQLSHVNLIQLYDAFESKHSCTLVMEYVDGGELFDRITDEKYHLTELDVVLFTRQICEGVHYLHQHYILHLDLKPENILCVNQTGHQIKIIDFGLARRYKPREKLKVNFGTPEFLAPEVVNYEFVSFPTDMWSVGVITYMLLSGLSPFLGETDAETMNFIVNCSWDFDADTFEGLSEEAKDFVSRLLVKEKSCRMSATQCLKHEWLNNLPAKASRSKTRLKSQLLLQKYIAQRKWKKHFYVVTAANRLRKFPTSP
The gist of the method:
as §1

The next experiment deals with T4, CAMK1d (Homo sapiens, UniProt Q8IU85).
T4 construct: purchased Reaction Biology Corp
T4 sequence (Q8IU85 whole entry): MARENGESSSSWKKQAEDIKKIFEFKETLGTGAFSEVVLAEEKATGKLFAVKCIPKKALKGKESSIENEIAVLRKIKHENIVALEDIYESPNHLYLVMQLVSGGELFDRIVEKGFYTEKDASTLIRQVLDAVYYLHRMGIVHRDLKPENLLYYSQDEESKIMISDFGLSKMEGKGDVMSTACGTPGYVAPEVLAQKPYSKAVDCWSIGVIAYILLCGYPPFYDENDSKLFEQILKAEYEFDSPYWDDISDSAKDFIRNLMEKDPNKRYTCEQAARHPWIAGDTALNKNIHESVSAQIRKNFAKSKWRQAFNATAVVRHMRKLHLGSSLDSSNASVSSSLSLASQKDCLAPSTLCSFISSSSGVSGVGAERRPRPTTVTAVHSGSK
The method, boiled down:
as §1

Another experiment deals with T5, TAK1 (Homo sapiens, UniProt O43318).
T5 construct: purchased Reaction Biology Corp
T5 sequence (O43318 1-303 limits assumed): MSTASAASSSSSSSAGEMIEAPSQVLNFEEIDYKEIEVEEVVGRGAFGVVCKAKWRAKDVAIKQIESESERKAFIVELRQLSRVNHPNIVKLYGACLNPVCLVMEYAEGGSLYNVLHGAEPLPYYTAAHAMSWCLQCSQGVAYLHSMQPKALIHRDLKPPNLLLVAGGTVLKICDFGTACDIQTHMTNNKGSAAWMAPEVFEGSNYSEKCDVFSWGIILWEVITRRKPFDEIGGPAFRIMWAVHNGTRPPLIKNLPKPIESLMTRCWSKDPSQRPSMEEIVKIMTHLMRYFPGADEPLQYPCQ
T5 sequence (Q15750 437-504 partner limits assumed): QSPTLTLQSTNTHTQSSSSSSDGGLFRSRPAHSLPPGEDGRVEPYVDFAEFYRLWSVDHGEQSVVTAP
The gist of the method: as §1

The mark [1] stands for this setting: read-out: % Enzyme Activity (relative to DMSO controls) AVG.
[2] abbreviates: read-out: % Enzyme Activity (relative to DMSO controls) Data 1.
The mark [3] stands for this setting: read-out: % Enzyme Activity (relative to DMSO controls) Data 2.

Where two headings read alike, the source gives them in different places.

T2 sequence (P16234 24-1089): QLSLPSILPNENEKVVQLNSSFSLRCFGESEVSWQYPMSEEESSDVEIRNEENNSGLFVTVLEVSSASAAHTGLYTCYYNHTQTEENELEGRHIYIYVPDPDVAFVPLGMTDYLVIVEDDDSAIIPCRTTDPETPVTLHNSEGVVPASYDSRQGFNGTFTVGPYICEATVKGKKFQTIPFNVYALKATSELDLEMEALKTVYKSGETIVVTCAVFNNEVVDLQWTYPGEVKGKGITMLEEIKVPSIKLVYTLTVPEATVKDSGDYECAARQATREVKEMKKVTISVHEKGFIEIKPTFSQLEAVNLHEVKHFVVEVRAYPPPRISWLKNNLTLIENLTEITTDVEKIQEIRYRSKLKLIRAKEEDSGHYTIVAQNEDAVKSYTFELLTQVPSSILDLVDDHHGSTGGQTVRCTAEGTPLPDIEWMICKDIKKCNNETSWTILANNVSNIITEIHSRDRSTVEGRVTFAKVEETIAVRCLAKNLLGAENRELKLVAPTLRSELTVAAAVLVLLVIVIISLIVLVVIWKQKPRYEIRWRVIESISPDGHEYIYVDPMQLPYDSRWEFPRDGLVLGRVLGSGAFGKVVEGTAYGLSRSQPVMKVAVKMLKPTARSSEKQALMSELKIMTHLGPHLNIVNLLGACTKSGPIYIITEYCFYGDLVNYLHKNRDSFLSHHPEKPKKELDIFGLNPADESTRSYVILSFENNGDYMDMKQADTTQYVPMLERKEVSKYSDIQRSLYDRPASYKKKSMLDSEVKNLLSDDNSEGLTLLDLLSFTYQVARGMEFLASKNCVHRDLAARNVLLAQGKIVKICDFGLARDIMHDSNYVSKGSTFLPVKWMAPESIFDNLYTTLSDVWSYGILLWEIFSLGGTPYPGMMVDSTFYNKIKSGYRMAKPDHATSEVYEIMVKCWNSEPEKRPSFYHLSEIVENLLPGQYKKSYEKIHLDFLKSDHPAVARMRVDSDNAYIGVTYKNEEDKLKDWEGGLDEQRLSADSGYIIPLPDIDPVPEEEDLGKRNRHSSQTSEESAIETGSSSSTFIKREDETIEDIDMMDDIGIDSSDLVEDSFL

For the compound `CC(C)(C)C(=O)N1N=CC[C@H]1c1ccccc1` [GSK′963], the remaining activity at 10 µM at TAOK2/TAO1 (setting [1]) is 95.6%; on TAOK2/TAO1 (setting [2]), 97%; at TAOK2/TAO1 (setting [3]) it was 94.2%; on PDGFRa (setting [1]), 104%; at PDGFRa (setting [2]), 101%; on PDGFRa (setting [3]), 106%. The remaining activity at 10 µM is 102% at MYLK3 (setting [1]); 99.7% on MYLK3 (setting [2]); 105% at MYLK3 (setting [3]); 90.2% at CAMK1d (setting [1]); 88.6% on CAMK1d (setting [2]); 91.8% on CAMK1d (setting [3]). The remaining activity at 10 µM at TAK1 (setting [1]) worked out at 98.8%; at TAK1 (setting [2]) it was 99.7%; at TAK1 (setting [3]), 97.9%.
